Measured values as given in US4122184A, “Benzimidazole insecticides” (priority 1977, dated 1978).
Where two headings read alike, the source gives them in different places.

Legend:
boll weevils = conditions: 250 ppm; cited from earlier work
oriental roaches = conditions: 250 ppm; cited from earlier work
Southern armyworm larvae = conditions: 250 ppm; cited from earlier work
milkweed bugs = conditions: 250 ppm; cited from earlier work
house flies = conditions: cited from earlier work
Mosquito Larvae = assay: Mosquito larvae test (dip test); assay type: in vivo, Aedes aegypti; conditions: 48 h
Procedure: Aedes aegypti larvae 5 days old are allowed to feed on fresh food for at least 3 hours previous to being placed on test. Larvae are then removed from the rearing pans by pouring on a 20 mesh screen, washing with deionized water, and pooling in a 6-inch white enameled sauce pan.
Twenty larvae are placed in a 1 oz. paper cup containing 25 ml. of deionized water.
Test chemicals are dissolved in a suitable solvent and pipetted under the surface of 225 ml. of deionized water in one pint wide-mouthed Mason jar test containers and stirred. A cup containing 20 larvae in 25 ml. of water is then added. […]
Results are determined 48 hours later by counting the dead and moribund larvae. […] Moribund larvae are those that are capable of limited, or poorly coordinated, locomotion in a sluggish manner.
Live larvae respond normally and actively.

[1] = test system: Southern Corn Rootworm Adults; assay: Field trial, contact poison test; assay type: in vivo
Source text: (§1) Infested plants are placed in 6 oz. prescription bottles filled with water to keep them from wilting. Cellucotton is wrapped around the plant stem and squeezed into the bottle neck to prevent the insects from drowning.
(§2) A DeVilbiss Special Atomizer (5004) is used at 10 psi to spray the test plant with different concentrations of compounds. The atomizer is held at arm's length to prevent blowing the insects off the host plant. After treating, the bottles are placed on a table covered with brown wrapping paper to catch the dead insects as they drop from the plant. The plants are spaced so the leaves or plants are not touching one another.
(§3) The results are read at 24, 48, and 72 hours when applicable. The rating scale is 0 to 9 where 0 = 0-10 percent and 9 = 91-100 percent mortality.
(§4) Using the above methods, field trials were carried out against species of 5 orders of insects. The results, which are summarized in the following tables, give the average mortality for the particular insect with a given benzimidazole for each concentration employed. […] These tables contain all results obtained during the summer trials.

[2] = test system: Potato Flea Beetle Adults; assay: Field trial, contact poison test; assay type: in vivo
Source text: as §1, §2, §3, §4

Alfalfa Weevil Larvae [3] = assay: Field trial, contact poison test; assay type: in vivo
Source text: as §1, §2, §3, §4

Boll Weevil [4] = assay: Field trial (first summer), topical; assay type: in vivo, Anthonomus grandis; conditions: .078125 μg/μl
Procedure: (§5) In a variation of the above test, 1 microliter of a test solution containing a predetermined number of micrograms of benzimidazole was applied directly to larvae or adult insects.
(§6) During the previous summer similar field trials were conducted employing the same tests as heretofore but with some additional species of insects not included in the later tests. The results listed below are for tests in which an insect mortality was established by a given application route and at a given concentration in a particular test. The same 0 - 9 scoring system is used as is the designation of compounds by alphabetical symbols.

Alfalfa Weevil Larvae [5] = assay: Field trial, topical application; assay type: in vivo
Procedure: as §3, §5, §4

Milkweed Bug = Milkweed Bug Test; assay type: in vivo, Oncopeltis fasciatus (Hemiptera); conditions: 100 ppm, 48 h
Procedure: Ten adult milkweed bugs are chilled and placed in a test cage. The cages containing the bugs are sprayed with 5 ml. of a test formulation containing a pre-determined amount of the insecticide, using a DeVilbiss atomizer at 10 psi held 33 inches from the top of the cage. After the cage has been allowed to dry, the bugs are fed and watered for 48 hours. A formulation containing 500 ppm of malathion is used as a reference standard and two unsprayed cages are kept as controls. Mortality counts are made 48 hours after spraying. Moribund adults are considered dead. The same rating scale is employed as before.

Mexican Bean Beetle = assay: Field trial (first summer), topical; assay type: in vivo, Epilachna varivestis; conditions: .25 μg/μl
Procedure: as §5, §6

Two-spotted Spider Mite = Two-spotted Spider Mite test; assay type: in vivo, Tetranychus urticae (Acarina); conditions: 48 h
Procedure: The procedure in this test is the same as that in the previous aphid test, except that about 100 two-spotted spider mites from a stock colony raised on squash plants are transferred to a cut squash cotyledon. The mortality is estimated 48 hours after spraying. The same rating scale is used.

Confused Flour Beetle = assay: Field trial (first summer), topical; assay type: in vivo; conditions: .078125 μg/μl
Procedure: as §5, §6

Squash Bug Adults = assay: Field trial, contact poison test; assay type: in vivo; set-up: key: 0-9 rating: 0 = 0-10% mortality, 9 = 91-100% mortality
Source text: as §1, §2, §3, §4

Yellow Mealworm Larvae = assay: Field trial, topical application; assay type: in vivo; set-up: key: 0 = 0-10% mortality, 9 = 91-100% mortality (0-9 scale)
Procedure: as §3, §5, §4

[6] = test system: Southern Corn Rootworm Adults; assay: Field trial, stomach poison test; assay type: in vivo; set-up: key: mortality rating on a 0 to 9 scale
Procedure: (§7) Leaves from the infested plant are treated with different concentrations of the test compounds, either by spraying with a DeVilbiss Special Atomizer (5004) at 10 psi or by dipping the leaves in solutions containing the compound. The leaves are then allowed to air dry.
(§8) After the leaves have dryed, they are placed in plastic petri dishes (100 × 25 mm), then the insects are counted out into each dish, five or ten insects per dish depending on the number of insects available. There are one or two replicates and usually two or three rates with each compound. Mortality results are taken at 24, 48 and 72 hours. The rating scale is 0 to 9.
as §4

[7] = test system: Striped Cucumber Beetle Adults; assay: Field trial, stomach poison test; assay type: in vivo; set-up: key: mortality rating on a 0 to 9 scale
Procedure: as §7, §8, §4

[8] = test system: Unidentified Green Leafhopper; assay: Field trial, stomach poison test; assay type: in vivo; set-up: key: mortality rating on a 0 to 9 scale
Procedure: as §7, §8, §4

[9] = test system: Tarnished Plant Bug Adults; assay: Field trial, stomach poison test; assay type: in vivo; set-up: key: mortality rating on a 0 to 9 scale
Procedure: as §7, §8, §4

[10] = test system: Potato Flea Beetle Adults; assay: Field trial, stomach poison test; assay type: in vivo
Procedure: as §7, §8, §4

Alfalfa Weevil Larvae [11] = assay: Field trial, stomach poison test; assay type: in vivo
Procedure: as §7, §8, §4

Meadow Spittlebug = assay: Field trial, stomach poison test; assay type: in vivo
Procedure: as §7, §8, §4

Boll Weevil [12] = assay: Boll Weevil Test; assay type: in vivo, Anthonomus grandis (Coleoptera); conditions: 48 h
Source text: The procedure is identical to that employed for the Mexican bean beetle and the Southern armyworm, except that 10 adult boll weevils are placed on cotton leaves that have been dipped into formulations of the test compounds. The same rating scale is used.

Picnic Beetle [13] = assay: Field trial (first summer), topical; assay type: in vivo; conditions: .078125 μg/μl
Procedure: as §5, §6

Meadow Grasshopper = assay: Field trial (first summer), contact; assay type: in vivo; conditions: 125 ppm
Source text: as §1, §2, §3, §6

Differential Grasshopper = assay: Field trial (first summer), contact; assay type: in vivo; conditions: 125 ppm
Source text: as §1, §2, §3, §6

Buffalo Tree Hopper = assay: Field trial (first summer), contact; assay type: in vivo; conditions: 125 ppm
Source text: as §1, §2, §3, §6

Asparagus Beetles Adults [14] = assay: Field trial, contact poison test; assay type: in vivo
Source text: as §1, §2, §3, §4

Picnic Beetle [15] = assay: Field trial (first summer), stomach; assay type: in vivo; conditions: 250 ppm
Procedure: as §7, §8, §6

Asparagus Beetles Adults [16] = assay: Field trial, stomach poison test; assay type: in vivo
Procedure: as §7, §8, §4

Picnic Beetle [17] = assay: Field trial (first summer), contact; assay type: in vivo; conditions: 250 ppm
Source text: as §1, §2, §3, §6

Milkweed Beetle = assay: Field trial (first summer), contact; assay type: in vivo; conditions: 125 ppm
Source text: as §1, §2, §3, §6

## FC(F)(F)c1nc2ccc(Cl)c(Cl)c2[nH]1 [2-trifluoromethyl-4,5-dichlorobenzimidazole]
Boll weevils
  insecticidal activity: without action
Oriental roaches
  insecticidal activity: without action
Southern armyworm larvae
  insecticidal activity: complete kill
Milkweed bugs
  insecticidal activity: without action
House flies; 1000 ppm
  insecticidal activity: excellent only at 1000 ppm

## FC(F)(F)c1nc2cc(Cl)c(Cl)cc2[nH]1 [2-trifluoromethyl-5,6-dichlorobenzimidazole]
Boll weevils
  insecticidal activity: no activity
Oriental roaches
  insecticidal activity: no activity
Southern armyworm larvae
  insecticidal activity: same excellent activity
Milkweed bugs
  insecticidal activity: no activity
House flies; 250 ppm
  insecticidal activity: no activity

## O=[N+]([O-])c1cc(C(F)(F)F)cc2c1nc(C(F)(F)F)n2S(=O)(=O)c1ccccc1 [F, 2,6-bis(trifluoromethyl)-4-nitro-1-phenylsulfonylbenzimidazole]
Mosquito Larvae; 0.010 ppm
  average mortality rating: 8 (85-90%)
Mosquito Larvae; 0.025 ppm
  average mortality rating: 5 (55-60%)
Mosquito Larvae; 0.05 ppm
  average mortality rating: 8 (85-90%)
Mosquito Larvae; 0.1 ppm
  average mortality rating: 9 (95-100%)
[1]; 25 ppm
  average mortality rating: 2
[1]; 50 ppm
  average mortality rating: 5
[1]; 100 ppm
  average mortality rating: 9 (91-100 percent mortality)
[2]; 10 ppm
  average mortality rating: 8
[2]; 25 ppm
  average mortality rating: 8
[2]; 50 ppm
  average mortality rating: 9 (91-100 percent mortality)
Alfalfa Weevil Larvae [3]; 500 ppm
  average mortality rating: 8
Alfalfa Weevil Larvae [3]; 750 ppm
  average mortality rating: 8
Alfalfa Weevil Larvae [3]; 1000 ppm
  average mortality rating: 8
Boll Weevil [4]
  insect mortality rating: 9 (91-100 percent mortality)
Alfalfa Weevil Larvae [5]; 0.03 μg/μl
  average mortality rating: 1
Alfalfa Weevil Larvae [5]; 0.07 μg/μl
  average mortality rating: 1
Alfalfa Weevil Larvae [5]; 0.1 μg/μl
  average mortality rating: 3
Milkweed Bug
  mortality rating: 7.5
Mexican Bean Beetle
  insect mortality rating: 9 (91-100 percent mortality)
Two-spotted Spider Mite; 1 ppm
  mortality rating: 6.3
Two-spotted Spider Mite; 5 ppm
  mortality rating: 7.5
Two-spotted Spider Mite; 10 ppm
  mortality rating: 6.8
Confused Flour Beetle
  insect mortality rating: 9 (91-100 percent mortality)
Squash Bug Adults; 125 ppm
  average mortality rating: 0 (0-10 percent)
Squash Bug Adults; 250 ppm
  average mortality rating: 4
Squash Bug Adults; 500 ppm
  average mortality rating: 7
Squash Bug Adults; 750 ppm
  average mortality rating: 9 (91-100 percent mortality)
Yellow Mealworm Larvae; 0.03 μg/μl
  average mortality rating: 2
Yellow Mealworm Larvae; 0.07 μg/μl
  average mortality rating: 3
Yellow Mealworm Larvae; 0.15 μg/μl
  average mortality rating: 5
[6]; 25 ppm
  average mortality rating: 3
[6]; 50 ppm
  average mortality rating: 4
[6]; 100 ppm
  average mortality rating: 5
[7]; 10 ppm
  average mortality rating: 0 (0-10 percent)
[7]; 25 ppm
  average mortality rating: 3
[7]; 50 ppm
  average mortality rating: 3
[8]; 10 ppm
  average mortality rating: 1
[8]; 25 ppm
  average mortality rating: 1
[8]; 50 ppm
  average mortality rating: 7
[9]; 10 ppm
  average mortality rating: 4
[9]; 25 ppm
  average mortality rating: 4
[9]; 50 ppm
  average mortality rating: 2
[10]; 10 ppm
  average mortality rating: 9 (91-100 percent mortality)
[10]; 25 ppm
  average mortality rating: 9 (91-100 percent mortality)
[10]; 50 ppm
  average mortality rating: 9 (91-100 percent mortality)
Alfalfa Weevil Larvae [11]; 125 ppm
  average mortality rating: 1
Alfalfa Weevil Larvae [11]; 250 ppm
  average mortality rating: 2
Alfalfa Weevil Larvae [11]; 500 ppm
  average mortality rating: 7
Meadow Spittlebug; 10 ppm
  average mortality rating: 0 (0-10 percent)
Meadow Spittlebug; 25 ppm
  average mortality rating: 1
Meadow Spittlebug; 50 ppm
  average mortality rating: 7
Boll Weevil [12]; 25 ppm
  mortality rating: 7.5
Boll Weevil [12]; 50 ppm
  mortality rating: 6.5
Boll Weevil [12]; 250 ppm
  mortality rating: 8.5

## C=CCOC(=O)n1c(C(F)(F)F)nc2c([N+](=O)[O-])cc(C(F)(F)F)cc21 [K, allyl 2,6-bis(trifluoromethyl)-4-nitro-1-benzimidazolecarboxylate]
Boll Weevil [4]
  insect mortality rating: 9 (91-100 percent mortality)
Mexican Bean Beetle
  insect mortality rating: 9 (91-100 percent mortality)
Picnic Beetle [13]
  insect mortality rating: 9 (91-100 percent mortality)
Confused Flour Beetle
  insect mortality rating: 9 (91-100 percent mortality)
Yellow Mealworm Larvae; 0.03 μg/μl
  average mortality rating: 1
Yellow Mealworm Larvae; 0.07 μg/μl
  average mortality rating: 3
Yellow Mealworm Larvae; 0.15 μg/μl
  average mortality rating: 6
Meadow Grasshopper
  insect mortality rating: 9 (91-100 percent mortality)
Differential Grasshopper
  insect mortality rating: 9 (91-100 percent mortality)
Buffalo Tree Hopper
  insect mortality rating: 9 (91-100 percent mortality)

## CCN(CC)C(=O)n1c(SC(F)(F)F)nc2c([N+](=O)[O-])cc(SC(F)(F)F)cc21 [S, n,n-diethyl-4-nitro-2,6-bis(trifluoromethyl)thio-1-benzimidazolecarboxamide]
Mosquito Larvae; 0.010 ppm
  average mortality rating: 4 (45-50%)
Mosquito Larvae; 0.025 ppm
  average mortality rating: 5 (55-60%)
Mosquito Larvae; 0.05 ppm
  average mortality rating: 5 (55-60%)
Mosquito Larvae; 0.1 ppm
  average mortality rating: 9 (95-100%)
[2]; 10 ppm
  average mortality rating: 5
[2]; 25 ppm
  average mortality rating: 8
[2]; 50 ppm
  average mortality rating: 9 (91-100 percent mortality)
Asparagus Beetles Adults [14]; 10 ppm
  average mortality rating: 0 (0-10 percent)
Asparagus Beetles Adults [14]; 25 ppm
  average mortality rating: 8
Asparagus Beetles Adults [14]; 50 ppm
  average mortality rating: 5
Picnic Beetle [13]
  insect mortality rating: 9 (91-100 percent mortality)
Yellow Mealworm Larvae; 0.03 μg/μl
  average mortality rating: 2
Yellow Mealworm Larvae; 0.07 μg/μl
  average mortality rating: 4
Yellow Mealworm Larvae; 0.15 μg/μl
  average mortality rating: 4
[8]; 10 ppm
  average mortality rating: 3
[8]; 25 ppm
  average mortality rating: 0 (0-10 percent)
[8]; 50 ppm
  average mortality rating: 0 (0-10 percent)
[9]; 25 ppm
  average mortality rating: 5
Picnic Beetle [15]
  insect mortality rating: 9 (91-100 percent mortality)
[10]; 10 ppm
  average mortality rating: 3
[10]; 25 ppm
  average mortality rating: 7
[10]; 50 ppm
  average mortality rating: 9 (91-100 percent mortality)
Asparagus Beetles Adults [16]; 5 ppm
  average mortality rating: 7
Asparagus Beetles Adults [16]; 10 ppm
  average mortality rating: 7
Asparagus Beetles Adults [16]; 25 ppm
  average mortality rating: 9 (91-100 percent mortality)
Picnic Beetle [17]
  insect mortality rating: 9 (91-100 percent mortality)
Milkweed Beetle
  insect mortality rating: 9 (91-100 percent mortality)
